Results as given in patent publication US11499197B2, “Prognosis method of multiple myeloma” (CENTRE NATIONAL DE LA RECHERCHE SCIENTIFIQUE, priority 2017, dated 2022).

Assays:
[1] = system: OPM2; experiment: Cell Titer Glo viability, OPM2 HMCL; assay type: cell-based, human; settings: OPM2, CTG viability
Procedure: (§1) AMO-1 and OPM2 HMCLs were purchased from DSMZ (Braunschweig, Germany), XG1 and XG21 were obtained as described (Moreaux et al., 2011). HMCLs were cultured in RPMI 1640 medium, 10% FCS (control medium). For XG-IL-6 dependent HMCLs 2 ng/ml IL-6 was added. Cells were cultured in 96-well flat-bottom microtiter plates in the presence of a concentration range of selected compounds: AZD7762 and OTSSP167 (Selleck, euromedex), HITOPK032, XL413, SRPIN340 (Sigma), AZ3146, Centrinone B (Tocris). Cell Titer Glo Luminescent Assay (Promega, Madison, Wis., USA) was used to assess cell viability, and the 50% inhibition (IC50) was determined using GraphPad Prism software (http://www.graphpad.com/scientific-software/prism/).
(§2) Statistical comparisons were done with unpaired or paired Student's t-tests. The effect of drug combination was evaluated using the methods developed by Chou and Talalay (Chou and Talalay, 1984) by calculating the combination Index (CI), with CI<1, CI=1, and CI>1 respectively indicating synergism, additive effects, and antagonism. Here we used CI=0.90-1.10 to indicated additivity.

[2] = system: XG7 WT and XG7 Mres; experiment: Viability of melphalan sensitive and resistant cell lines (CTG); assay type: cell-based, human; settings: inhibitor at IC20
Procedure: FIG. 32 represents a graph of the calculated IC50 for the co-treatment with melphalan and selected kinase inhibitors at IC20. Melphalan sensitive (XG7 WT) and Resistant (XG7 MRes) cell lines were treated for 4 days with the selected kinases inhibitors. Cell viability was monitored by the CTG. p-value: *<0.05; **<0.01; ***<0.001.
The facts that: 1) all drugs tested are actively decreasing HMCLs viability and induce apoptosis; 2) co-treatment with melphalan leads to synergy or potentialized the decrease of cell viability; 3) some of the selected kinases inhibitors can reverse the resistance to lenalidomide in AMO1 HMCL, led us to question the capability of these drugs to reverse or reduce also melphalan resistance. In that purpose, the inventors used a cell line developed in the inventors' laboratory, and that has been culture to resist to melphalan (Mres) compare to its negative control (WT) (FIG. 30). The inventors first tested the capacity of the different inhibitors to reduce cell viability in this model. All tested kinase's inhibitors lower cell viability of the control or the melphalan resistant cell line.

[3] = system: XG21; experiment: Cell Titer Glo viability, XG21 HMCL; assay type: cell-based, human; settings: XG21, CTG viability
Procedure: as §1, §2

[4] = system: AMO1 HMCL; experiment: DNA damage (γH2AX) by flow cytometry; assay type: cell-based, human; settings: for γH2AX (DNA damages), used alone: AMO1, 4 days
Description: FIG. 27 represents graphs illustrating that the co-treatments induce cell death and differentially affect DNA damages in AMO1 HMCL.
FIG. 28 represents graphs representing DNA damages following SRPIN340 and AZ3146 co-treatment in AMO1 cell line. γH2AX were monitored by flow cytometry after 4 days treatments. p-value: *<0.05; **<0.01; ***<0.001.
(§3) Cells were culture in 12 wells plate for 4 days. Apoptotic cells were detected using phycoerythrin-conjugated Annexin V (PE-annexin V, BD Pharmingen). For the cell cycle and DNA damage, we used the Apoptosis, DNA damage and cell proliferation kit (BD), following the manufacturer's protocol.

[5] = system: AMO1 HMCL; experiment: Cell cycle analysis by flow cytometry; assay type: cell-based, human; settings: for cell cycle arrest on co-treatment with melphalan or lenalidomide: AMO1, 4 days co-treatment; for cell cycle arrest: AMO1, single agent
Description: FIG. 15 represents graphs showing the effects of the treatments with inhibitors on cell cycle in AMO1 cells. p-value: *<0.05; **<0.01; ***<0.001.
FIG. 29 represents graphs illustrating that Co-treatments differentially affect cell cycle in AMO1 cell line. Cotreatment with Melphalan or Lenalidomide and A) AZD7762; B) OTSSP167; C) Centrinone B; D) XL413. Cell cycle was monitored by flow cytometry after 4 days co-treatments. p-value: *<0.05; **<0.01; ***<0.001.
as §3

[6] = system: HMCLs (AMO1, OPM2, XG1, XG21); experiment: HMCL viability, single and co-treatment with conventional MM drugs (CTG); assay type: cell-based, human; settings: for synergy with melphalan / Lenalidomide treatment on co-treatment with kinase inhibitor / synergy with lenalidomide: inhibitor at IC20; for synergy with melphalan / synergy with lenalidomide: XG1, XG21, AMO1, OPM2; for Lenalidomide treatment on co-treatment with kinase inhibitor: AMO1 and OPM2
Procedure: as §1, §2
Keeping in mind the main objective of identifying alternative and efficient complementary treatment for MM patients, the inventors next performed co-treatment on HMCLs with commonly used therapeutic drugs in MM (e.g. Melphalan, Lenalidomide, Velcade) and the different kinases inhibitors. In order to fit to the goal of a combination treatment the inventors used an arbitrary […] for all the kinases inhibitors, which the inventors associated with various concentration of the standard therapeutic.

[7] = system: XG1; experiment: Cell Titer Glo viability, XG1 HMCL; assay type: cell-based, human; settings: XG1, CTG viability
Procedure: as §1, §2

[8] = system: AMO1; experiment: Cell Titer Glo viability, AMO1 HMCL; assay type: cell-based, human; settings: for IC20 / IC50: AMO1, CTG viability
Procedure: as §1, §2

[9] = system: AMO1 HMCL; experiment: Apoptosis (annexin V, PARP cleavage) by flow cytometry; assay type: cell-based, human; settings: for cell death via apoptosis (annexin) on co-treatment: AMO1, sub-lethal Melphalan or Lenalidomide + inhibitor at IC20, 4 days
Description: FIG. 14 represents graphs showing that inhibitors increase apoptosis (annexin and PARP) in AMO1 cell line; Annexin and PARP were monitored by flow cytometry after 4 days treatments. p-value: *<0.05; **<0.01; ***<0.001.
FIG. 25 represents graphs illustrating that the co-treatments induce cell death and differentially affect DNA damages in AMO1 HMCL. Co-treatment with selected kinase inhibitors at IC20 and Melphalan or Lenalidomide.
as §3

[10] = system: normal BM microenvironment cells from patients; experiment: Toxicity on non-tumoral bone marrow cells in primary patient cultures; assay type: cell-based, human; settings: N=5 patients, 4 days
Description: CD138 amount was monitored by flow cytometry after 4 days of treatment.

[11] = system: primary Mouse myeloma (5T33vv) and mouse myeloma cell line (5T33vt); experiment: Mouse myeloma cell viability (CTG); assay type: cell-based; settings: 5T33vv and 5T33vt, CTG after 24, 48 or 96 hours
Procedure: FIG. 18 represents graphs cell viability of primary Mouse myeloma (5T33vv) and mouse myeloma cell line (5T33vt), monitored by CTG after 24, 48 or 96 hours treatment with indicated inhibitors.

[12] = system: primary MM cells from patients; experiment: Primary myeloma cell cytotoxicity (CD138 flow cytometry); assay type: cell-based, human; settings: N=5 patients, 4 days of treatment
Description: FIG. 16 represents graphs showing the % of CD138+ cells after treatment by AZD7762, OTSSP167 and Centrinone B in 5 different primary MM cells.
FIG. 17 represents graphs showing that the three tested inhibitors reduce % of tumor MM cells without toxicity on normal BM microenvironment cells from patients (N=5). CD138 amount was monitored by flow cytometry after 4 days of treatment.
Bone marrow of patients presenting with previously untreated MM (N=5) at the university hospital of Montpellier was obtained after patients' written informed consent in accordance with the Declaration of Helsinki and agreement of the Montpellier University Hospital Centre for Biological Resources (DC-2008-417). Primary myeloma cells of patients were cultured with or without graded concentrations of selected inhibitors and MMC cytotoxicity evaluated using anti-CD138-Phycoerythrin monoclonal antibody and CD38-Allophycocyanin (Beckman-Coulter) as described (Moreaux et al., 2012).

[13] = system: AMO1 HMCL; experiment: Proteome profiler array (phospho kinases, apoptosis proteins); assay type: cell-based, human; settings: AMO1, 48 h treatment
Procedure: Proteins accumulations were monitored after 48 h treatment on AMO1 HMCL using proteome profiler array. Relative amount was calculated as the mean of pixel density. Phospho kinases and apoptosis proteins were quantified using the dedicated proteome Profiler™ array (RD systems, Bio-techne) following the manufacturer instructions. 500 μg and 300 μg protein were used for the two arrays respectively.

Compound: Cl.O=c1[nH]c([C@@H]2CCCN2)nc2c1oc1ccc(Cl)cc12 [XL413]
- IC50 [1]: 24.5 µM
- melphalan resistance on co-treatment with melphalan [2]: reversed the melphalan resistance
- IC50 [3]: 30.3 µM
- γH2AX (DNA damages), used alone [4]: showed an activity on […]H2AX recruitment when used alone
- cell cycle arrest on co-treatment with melphalan or lenalidomide [5]: no differences between single and co-treatment
- cell cycle arrest [5]: arrested the cells in S phase
- synergy with melphalan [6]: synergized with the conventional treatment
- IC50 [7]: 4.2 µM
- IC20 [8]: 9.4 µM
- IC50 [8]: 19.9 µM
- cell death via apoptosis (annexin) on co-treatment [9]: increase cell death via apoptosis

Compound: CC(=O)c1cnc2ccc(-c3cc(Cl)c(O)c(Cl)c3)nc2c1N[C@H]1CC[C@H](CN(C)C)CC1 [OTSSP167]
- IC50 ([1]; Homo sapiens, OPM-2): 0.016 µM
- IC50 ([3]; Homo sapiens): 0.002 µM
- effect on non-tumoral cells [10]: barely affected
- γH2AX (DNA damages), used alone [4]: showed an activity on […]H2AX recruitment when used alone
- γH2AX (DNA damages) on co-treatment with melphalan ([4]; AMO1, inhibitor at IC20, 4 days): significantly potentialized the melphalan co-treatment by increasing […]H2AX
- cell cycle arrest on co-treatment with melphalan or lenalidomide [5]: no differences between single and co-treatment
- cell cycle arrest [5]: arrested the cells in S phase
- Lenalidomide treatment on co-treatment with kinase inhibitor [6]: potentialized
- synergy with lenalidomide [6]: synergized with the conventional treatment
- synergy with melphalan [6]: synergized with the conventional treatment
- cell viability in mouse cellular model of multiple myeloma [11]: demonstrated similar efficiency
- number of tumoral cells (CD138+) [12]: reduced the number of tumoral cells
- IC50 ([7]; Homo sapiens): 0.012 µM
- IC20 ([8]; Homo sapiens): 0.0054 µM
- IC50 ([8]; Homo sapiens): 0.0082 µM
- cell death via apoptosis (annexin) on co-treatment [9]: increase cell death via apoptosis

Compound: NC(=O)Nc1cc(-c2cccc(F)c2)sc1C(=O)N[C@H]1CCCNC1 [AZD7762]
- claspin and survivin [13]: decrease in claspin and survivin
- IC50 ([1]; Homo sapiens, OPM-2): 0.116 µM
- melphalan resistance on co-treatment with melphalan [2]: reversed the melphalan resistance
- IC50 ([3]; Homo sapiens): 0.21 µM
- effect on non-tumoral cells [10]: barely affected
- cell cycle arrest [5]: arrested the cells in S phase
- Lenalidomide treatment on co-treatment with kinase inhibitor [6]: potentialized
- synergy with lenalidomide [6]: synergized with the conventional treatment
- synergy with melphalan [6]: synergized with the conventional treatment
- cell viability in mouse cellular model of multiple myeloma [11]: demonstrated similar efficiency
- number of tumoral cells (CD138+) [12]: reduced the number of tumoral cells
- IC50 ([7]; Homo sapiens): 0.095 µM
- IC20 ([8]; Homo sapiens): 0.082 µM
- IC50 ([8]; Homo sapiens): 0.136 µM
- cell death via apoptosis (annexin) on co-treatment [9]: increase cell death via apoptosis

Compound: N[C@@H](Cc1ccc(N(CCCl)CCCl)cc1)C(=O)O [melphalan]
- γH2AX (DNA damages), used alone [4]: increased the measured […]H2AX

Compound: Nc1cccc2c1CN(C1CCC(=O)NC1=O)C2=O (stereo not shown) [lenalidomide]
- γH2AX (DNA damages), used alone [4]: didn't demonstrate any particular effect
- Lenalidomide effect on viability alone or in combination ([6]; lenalidomide resistant HMCLs XG1 and XG21): no effect of the treatment alone or in combination
- Lenalidomide IC50, treatment alone ([8]; AMO1): undetermined

Compound: AZ3146
- IC50 [1]: 1.9 µM
- IC50 [3]: 3 µM
- cell cycle arrest [5]: arrested the cell cycle in G0/G1
- IC50 [7]: 1.2 µM
- IC20 [8]: 1.4 µM
- IC50 [8]: 2.6 µM
- cell death via apoptosis (annexin) on co-treatment [9]: didn't have any significant additional effect on cell death

Compound: N#Cc1c2nc3ccccc3nc2n2ccc(NC(=O)c3cccs3)cc12 [HI)TOPK]
- IC50 [1]: 5 µM
- melphalan resistance on co-treatment with melphalan [2]: reversed the melphalan resistance
- IC50 [3]: 4.1 µM
- Lenalidomide treatment on co-treatment with kinase inhibitor [6]: potentialized
- synergy with lenalidomide [6]: synergized with the conventional treatment
- synergy with melphalan [6]: synergized with the conventional treatment
- IC50 [7]: 4.4 µM
- IC20 [8]: 3.9 µM
- IC50 [8]: 5.1 µM

Compound: COc1c(Nc2cc(C)[nH]n2)nc(Sc2ccc(S(=O)(=O)Cc3cccc([N+](=O)[O-])c3F)cc2F)nc1N1CCCCC1 [Centrinone-B]
- IC50 [1]: 0.44 µM
- IC50 [3]: 1.39 µM
- effect on non-tumoral cells [10]: barely affected
- cell cycle arrest [5]: arrested the cell cycle in G0/G1
- synergy with lenalidomide [6]: synergized with the conventional treatment
- cell viability in mouse cellular model of multiple myeloma [11]: less effective on cell viability
- number of tumoral cells (CD138+) [12]: reduced the number of tumoral cells
- IC50 [7]: 0.226 µM
- IC20 [8]: 0.024 µM
- IC50 [8]: 0.421 µM
- cell death via apoptosis (annexin) on co-treatment [9]: potentialized cell death only with lenalidomide

Compound: O=C(Nc1cc(C(F)(F)F)ccc1N1CCCCC1)c1ccncc1 [SRPIN340]
- IC50 [1]: 33.2 µM
- IC50 [3]: 25.8 µM
- γH2AX (DNA damages), used alone [4]: showed an activity on […]H2AX recruitment when used alone
- synergy with lenalidomide [6]: synergized with the conventional treatment
- IC50 [7]: 30.1 µM
- IC20 [8]: 30 µM
- IC50 [8]: 43.3 µM
- apoptosis as measured by annexin V staining and PARP clivage ([9]; AMO1, single agent, 2 concentrations surrounding IC50, 4 days): all drugs but SRPIN340/SRPK1 induced apoptosis
- cell death via apoptosis (annexin) on co-treatment [9]: didn't have any significant additional effect on cell death
